Measurements published in article PMC10299128, “The Parallel Structure–Activity Relationship Screening of Three Compounds Identifies the Common Agonist Pharmacophore of Pyrrolidine Bis-Cyclic Guanidine Melanocortin-3 Receptor (MC3R) Small-Molecule Ligands” (International Journal of Molecular Sciences, 2023).
“And” between values parts separate entries of the source, which are not always exact repeats. Equal entries are not always repeated. Where two headings read alike, the source gives them in different places.

Experiments:
mMC1R [1] = target: T1, mMC1R (Mus musculus, UniProt Q01727); assay: AlphaScreen cAMP agonist assay, HEK293 cells stably expressing mMC1R
Experimental: (§1) Pyrrolidine bis-cyclic guanidine compounds were assessed for biological activity using the AlphaScreen cAMP kit with HEK293 cells stably expressing the mMC1R, mMC3R, mMC4R, or mMC5R, as previously described [37, 38, 39]. […] Compounds were assayed for agonist activity in a 7-point dose–response curve (10^−3 to 10^−9 M). […] The purified compounds were dissolved in DMSO at a stock concentration of 10^−1 M and assayed using HEK293 cells stably expressing the mouse MC1R, MC3R, MC4R, and MC5R using the AlphaScreen cAMP bioassay (PerkinElmer, Waltham, MA, USA) according to the manufacturer’s instructions and as previously described [37, 38, 39].
(§2) Briefly, cells 70−90% confluent were dislodged with Versene (Gibco, Waltham, MA, USA) at 37 °C and 10,000 cells/well were plated in a 384-well plate (Optiplate, PerkinElmer, Waltham, MA, USA) with 10 μL of freshly prepared stimulation buffer (1× HBSS, 5 mM HEPES, 0.5 mM IBMX, 0.1% BSA, pH = 7.4) with 0.5 μg of anti-cAMP acceptor beads per well. The cells were stimulated with the addition of 5 μL of stimulation buffer containing compound or forskolin (10^−4 M) and incubated in the dark at room temperature for 2 h. Following stimulation, streptavidin donor beads (0.5 μg) and biotinylated cAMP (0.62 μmol) were added to the wells in a green light environment with 10 μL of lysis buffer (5 mM HEPES, 0.3% Tween-20, 0.1% BSA, pH = 7.4) and the plates were incubated in the dark at room temperature for an additional 2 h. Plates were read on a Enspire (PerkinElmer, Waltham, MA, USA) Alpha plate reader using a pre-normalized assay protocol (set by the manufacturer).

mMC4R [2] = target: T2, mMC4R (Mus musculus, UniProt P56450); assay: cell-based
Experimental: as §1, §2

mMC3R [3] = target: T3, mMC3R (Mus musculus, UniProt P33033); design: expressed in transfected cells; method as in PMID 33886285; details: β-galactosidase reporter gene assay; read-out: mMC3R agonist EC50 (previously reported); cited from earlier work
mMC4R [4] = target: T2, mMC4R; details: antagonist, Schild analysis with agonist NDP-MSH; mean ± SEM
Experimental: as §1, §2

mMC4R [5] = target: T2, mMC4R; design: expressed in transfected cells; method as in PMID 33886285; details: cited from earlier work; for mMC4R partial stimulation, % activation (previously reported): at 10 µM
mMC1R [6] = target: T1, mMC1R; design: expressed in transfected cells; method as in PMID 33886285; details: cited from earlier work
mMC4R [7] = target: T2, mMC4R; assay: AlphaScreen cAMP agonist assay, HEK293 cells stably expressing mMC4R; details: for mMC4R partial agonist efficacy bin: sigmoidal curve, efficacy <90% of NDP-MSH
Experimental: as §1, §2

mMC3R [8] = target: T3, mMC3R; assay: AlphaScreen cAMP agonist assay, HEK293 cells stably expressing mMC3R
Experimental: as §1, §2

mMC4R [9] = target: T2, mMC4R; design: expressed in transfected cells; method as in PMID 33886285; details: with agonist MTII; cited from earlier work
mMC5R [10] = target: T4, mMC5R (Mus musculus, UniProt P41149); design: expressed in transfected cells; method as in PMID 33886285; details: β-galactosidase reporter gene assay; read-out: mMC5R agonist EC50 (previously reported); cited from earlier work
mMC5R [11] = target: T4, mMC5R; assay: AlphaScreen cAMP agonist assay, HEK293 cells stably expressing mMC5R
Experimental: as §1, §2

[12] = target: mouse melanocortin-3 receptor (mouse) (UniProt P33033)
[13] = target: mouse melanocortin-1 receptor (mouse) (UniProt Q01727)
[14] = target: mouse melanocortin-5 receptor (mouse) (UniProt P41149)
MC1R = test system: MC1R; design: method as in PMID 21215742; details: read-out: MC1R antagonist IC50; cited from earlier work
MC5R = test system: MC5R; design: method as in PMID 21215742; details: read-out: MC5R antagonist IC50; cited from earlier work

T1 sequence (Q01727 whole entry): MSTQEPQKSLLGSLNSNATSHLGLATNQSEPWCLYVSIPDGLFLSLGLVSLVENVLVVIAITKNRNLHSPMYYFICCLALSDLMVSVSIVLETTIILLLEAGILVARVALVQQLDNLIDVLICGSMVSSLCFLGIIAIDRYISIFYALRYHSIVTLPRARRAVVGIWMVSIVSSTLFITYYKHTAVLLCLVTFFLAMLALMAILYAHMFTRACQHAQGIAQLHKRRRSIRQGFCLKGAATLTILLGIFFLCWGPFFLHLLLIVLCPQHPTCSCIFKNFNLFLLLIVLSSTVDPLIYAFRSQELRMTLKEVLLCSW
T3 sequence (P33033 whole entry): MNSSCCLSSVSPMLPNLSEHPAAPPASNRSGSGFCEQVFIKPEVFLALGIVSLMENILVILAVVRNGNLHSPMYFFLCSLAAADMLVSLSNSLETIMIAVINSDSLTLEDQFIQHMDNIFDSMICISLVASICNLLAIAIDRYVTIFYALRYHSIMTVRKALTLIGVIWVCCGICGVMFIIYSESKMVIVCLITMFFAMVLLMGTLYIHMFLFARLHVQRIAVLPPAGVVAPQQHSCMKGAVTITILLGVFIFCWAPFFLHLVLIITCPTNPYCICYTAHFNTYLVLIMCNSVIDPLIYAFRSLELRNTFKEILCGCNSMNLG
T4 sequence (P41149 whole entry): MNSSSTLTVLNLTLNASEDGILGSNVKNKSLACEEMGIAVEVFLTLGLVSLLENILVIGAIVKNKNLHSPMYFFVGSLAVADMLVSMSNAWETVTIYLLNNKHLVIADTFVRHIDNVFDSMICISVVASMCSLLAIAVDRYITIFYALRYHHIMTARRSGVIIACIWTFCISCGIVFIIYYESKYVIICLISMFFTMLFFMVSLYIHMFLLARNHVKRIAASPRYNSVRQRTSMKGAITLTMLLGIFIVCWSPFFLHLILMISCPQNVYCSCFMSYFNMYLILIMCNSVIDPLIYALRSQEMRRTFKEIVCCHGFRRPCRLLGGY
T2 sequence (P56450 whole entry): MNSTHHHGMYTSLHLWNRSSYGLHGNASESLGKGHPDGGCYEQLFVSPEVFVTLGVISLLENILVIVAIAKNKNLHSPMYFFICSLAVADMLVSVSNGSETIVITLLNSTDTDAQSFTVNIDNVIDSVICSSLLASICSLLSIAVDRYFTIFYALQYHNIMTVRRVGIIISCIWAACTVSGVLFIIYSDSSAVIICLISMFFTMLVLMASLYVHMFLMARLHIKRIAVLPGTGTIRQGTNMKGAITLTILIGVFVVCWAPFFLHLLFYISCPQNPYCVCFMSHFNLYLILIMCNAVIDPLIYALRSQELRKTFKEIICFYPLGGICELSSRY
Sequence of mouse melanocortin-1 receptor (mouse) (Q01727 whole entry): as the sequence (Q01727 whole entry) above
Sequence of mouse melanocortin-3 receptor (mouse) (P33033 whole entry): as the sequence (P33033 whole entry) above
Sequence of mouse melanocortin-5 receptor (mouse) (P41149 whole entry): as the sequence (P41149 whole entry) above

Row | Compound | EC50 (mMC1R [1]) | Kb (mMC4R [2]) | EC50 (mMC3R [3]) | mMC4R pA2 (mMC4R [4]) | mMC4R partial stimulation, % activation (previously reported) (mMC4R [5]) | EC50 (mMC4R [7]) | mMC4R partial agonist efficacy bin (mMC4R [7]) | EC50 (mMC3R [8]) | mMC4R antagonist pA2 (previously reported) (mMC4R [9]) | EC50 (mMC5R [10]) | EC50 (mMC5R [11]) | further results
1 | CCCC1CN(C(CC2CCCCC2)CN2CCCC2CN2C(=N)NCC2C(C)C)C(=N)N1CC1CCC(C(C)(C)C)CC1 (stereo not shown) [Compound 2718.003] | 640 ± 30 nM | 1260 nM | 350 nM | 5.9 | 50% | 2500 ± 600 nM | A (A (20–50% receptor activation)) | 2000 ± 300 nM | 5.8 | 540 nM | 1200 ± 200 nM | mMC1R partial stimulation (previously reported) (mMC1R [6]; at 100 µM): 50–90%; fold decreased mMC3R potency between the previous reported values and the present study (mMC3R [8]; AlphaScreen (present) vs previously reported value [29]): 6 fold
2 | NDP-MSH (peptide) | – | – | – | – | – | – | – | – | – | – | – | EC50 of agonist activity, AlphaScreen cAMP assay, HEK293 cells stably expressing mMC3R [12]: 0.069 nM; EC50 of agonist activity, AlphaScreen cAMP assay, HEK293 cells stably expressing mMC1R [13]: 0.055 nM; EC50 of agonist activity, AlphaScreen cAMP assay, HEK293 cells stably expressing mMC5R [14]: 0.1 nM
3 | COc1ccccc1-c1nc(=Nc2ccccc2)sn1-c1ccccc1OC [JNJ-10229570] | – | – | – | – | – | – | – | – | – | – | – | IC50 (MC1R): 200 to 300 nM; IC50 (MC5R): 200 to 300 nM
4 | CC(C)CC1CNC(=N)N1CC1CCCN1CC(Cc1ccccc1)N1CC(C(C)O)N(CC2CCC(C(C)(C)C)CC2)C1=N (stereo not shown) [Compound 2718.001] | 320 ± 30 nM | 1000 nM | 310 nM | 6.0 | 10–50% | – | – | 270 ± 20 nM | 7.0 | 530 nM | 260 ± 30 nM | mMC1R partial stimulation, % efficacy (previously reported) (mMC1R [6]; at 10 µM): 58%
5 | CC(C)CC1CNC(=N)N1CC1CCCN1CC(CC1CCCCC1)N1CC(C(C)O)N(CC2CCC(C(C)(C)C)CC2)C1=N (stereo not shown) [Compound 2718.002] | 270 ± 20 nM | 631 nM | 210 nM | 6.2 | – | 1200 ± 300 nM | A (A (20–50% receptor activation)) | 240 ± 8 nM | 5.8 | 140 nM | 290 ± 10 nM | EC50 (mMC4R [5]; partial agonist, read-out: mMC4R partial agonist EC50 (previously reported)): 270 nM; mMC4R partial agonist efficacy, % MTII signal (previously reported) (mMC4R [5]; relative to MTII): 45%; EC50 (mMC1R [6]; β-galactosidase reporter gene assay, read-out: mMC1R agonist EC50 (previously reported)): 300 nM
6 | C[C@H](O)[C@@H]1CN([C@H](Cc2ccccc2)CN2CCC[C@H]2CN2CCNC2=N)C(=N)N1CC1CCC(C(C)(C)C)CC1 (stereo partly shown) [Compound 2718.024] | 390 ± 50 nM | 501 nM | – | 6.3 | – | – | – | 3000 ± 700 nM | – | – | 480 ± 50 nM | mMC4R percent maximal stimulatory response (compared to NDP-MSH) (mMC4R [7]; at 1 mM, not enough stimulation to determine EC50): 50% @ 1 mM; fold decreased mMC3R agonist potency (mMC3R [8]; relative to 2718.001): 11 fold and 10 fold; mMC3R agonist efficacy (in words) (mMC3R [8]; relative to NDP-MSH, full = >90% receptor activation): full agonist efficacy
